Key:
[1] = tested on: Colo829 xenograft tumor sections; experiment: Autoradiography on Colo829 xenograft sections; type: binding; settings: co-incubation with unmodified vemurafenib 100 μM, tracer only = 100%
Procedure: (§1) To determine the binding potential of [^11C]vemurafenib to tumor tissue expressing BRAF^wt or BRAF^V600E, autoradiography studies on xenograft sections and in vitro cellular uptake studies were performed. Sections of tumor xenografts derived from the aforementioned cell lines were incubated with [^11C]vemurafenib.
(§2) Colo829 and MeWo xenograft sections (10 μm thickness) were pre-treated three times with 5 mM Tris-HCl buffer (pH 7.4) for 5 min.. Sections were dried under a gentle air flow before incubation for 30 min. with [^11C]vemurafenib and the following conditions: (A) 5 mM Tris-HCl, pH 7.4; (B) 5 mM Tris-HCl, pH 7.4 and isotopically unmodified vemurafenib at 100 μM (n = 4 for each incubation condition). Washing was performed using Tris-HCl (3×) followed by dipping in ice cold water. After drying in an air stream, tumor sections were exposed to a phosphor-imaging screen for 15 min. Data was quantified as average signal intensity per surface area and were represented relative to the tracer only (A) conditions, which was set at 100%. Error bars indicate standard deviations. Quantification of binding was performed using ImageQuantTL v8.1.0.0 (GE Healthcare, Buckinghamshire, UK) by drawing regions of interest around the full tumor sections.

[2] = tested on: MeWo xenograft tumor sections; experiment: Autoradiography on MeWo xenograft sections; type: binding; settings: co-incubation with unmodified vemurafenib 100 μM, tracer only = 100%
Procedure: as §1, §2

Colo829 cells = experiment: In vitro cell uptake, Colo829; type: cell-based
Procedure: (§3) To determine binding of [^11C]vemurafenib in vitro to intact tumor cells a cell uptake study was performed by incubation of tumor cells in suspension with [^11C]vemurafenib, followed by removal of the supernatant and washing of the cells with PBS (phosphate buffered saline). […] While in vitro experiments can be of great value to predict tracer target binding, the experiments exclude many of the factors observed in vivo, for PET-tracer validation. Therefore in vivo experiments are of the utmost importance for PET-tracer validation. […]
(§4) Colo829 or MeWo cells (1*10^6) suspended in growth medium were incubated in triplicate in centrifuge tubes at 37°C with 1 MBq of [^11C]vemurafenib (corresponding to 0.02 nmol of vemurafenib) for 30 min. […] All fractions (cells, supernatant and PBS) were counted for radioactivity using a gamma counter (Wallac 1210 Compugamma, PerkinElmer, Waltham, MA, USA) and the cell bound/internalized percentage of [^11C]vemurafenib was determined as the fraction of activity in the cell pellet divided by the total activity (cells, supernatant and PBS) corrected for background (medium only) and vehicle treated conditions.

MeWo cells = experiment: In vitro cell uptake, MeWo; type: cell-based
Procedure: as §3, §4

[3] = Plasma metabolite analysis (in vivo stability); design: species or system athymic nu/nu mice; settings: for Parent (%): plasma, i.v., non-tumor bearing mice
Procedure: The cartridge was washed with 5 mL of H2O to collect polar radioactive metabolites.

[4] = tested on: Colo829 (BRAF^V600E) xenografts; experiment: Ex vivo biodistribution, Colo829 xenograft bearing mice; type: in vivo, athymic nu/nu mice; settings: 60 min p.i.
Procedure: (§5) To evaluate the in vivo tumor targeting potential an ex vivo biodistribution study was performed in mice bearing the aforementioned melanoma xenografts. Tumor bearing mice were injected with 20–25 MBq of [^11C]vemurafenib (corresponding to 0.36–0.45 nmol of vemurafenib) and sacrificed 60 minutes post injection. Subsequently organs of interest were excised and counted for activity.
(§6) Nude mice (Athymic nu/nu, Harlan, Horst, The Netherlands) bearing two tumors (obtained by injection of MeWo or Colo829 cells, 2*10^6 per site) of the same xenograft line on their left and right flank, received an injection of 25 MBq [^11C]vemurafenib (corresponding to 0.45 nmol of vemurafenib) via the ocular plexus. The mice were sacrificed and dissected at 60 min. post-injection. Blood, urine, skin, left tumor, right tumor, muscle, heart, colon, lung, liver, kidney and brain were collected, weighed and counted for radioactivity in a gamma counter (Wallac 1210 Compugamma, PerkinElmer, Waltham, MA, USA). Biodistribution data are expressed as percentage of injected dose per gram (%ID/g) of tissue for each organ.

[5] = tested on: MeWo (BRAF^wt) xenografts; experiment: Ex vivo biodistribution, MeWo xenograft bearing mice; type: in vivo, athymic nu/nu mice; settings: 60 min p.i.
Procedure: as §5, §6

[6] = Ex vivo biodistribution, statements made for both xenograft lines; type: in vivo, athymic nu/nu mice
Procedure: as §5, §6

[7] = tested on: Colo829 (BRAF^V600E) cells; experiment: Cell titer blue cell viability assay, Colo829; type: cell-based; settings: Homo sapiens, COLO-829
Procedure: (§7) Having a reliable synthesis route to obtain [^11C]vemurafenib, cell lines had to be selected to evaluate the tumor targeting potential of [^11C]vemurafenib. Two melanoma cell lines were selected based on reported mutational status of BRAF: Colo829 (BRAF^V600E) and MeWo (BRAF^wt). Both cell lines were analyzed by Fluorescence Activated Cell Sorting (FACS) using a BRAF antibody (recognizing both wild-type and BRAF^V600E) and a BRAF^V600E selective antibody for assessment of target expression (Figure 2A/2B). […] Furthermore, both the cells as well as the xenografts derived from the cell lines were sequenced to confirm the expression of BRAF and the mutational status thereof. […] (V600E) and MeWo cells and xenografts were wild-type. […] So while the BRAF^V600E kinase is sensitive to vemurafenib treatment, it appears that a certain level of mutated protein expression is required for this sensitivity, as both cell lines expressed the mutation to an extent, as determined by FACS. In contrast sequencing only detected the V600E mutation in the Colo829, indicative of higher expression. […]
(§8) Vemurafenib stock solutions of 1 mM in DMSO were prepared and diluted with PBS to a concentration of 10 μM (1% DMSO). […] Finally the fluorescence was measured using a TriStar^2 LB942 plate reader (Berthold Technologies, Bad Wildbad, Germany). […]

MeWo (BRAF^wt) cells = experiment: Cell titer blue cell viability assay, MeWo; type: cell-based; settings: 120 h incubation, CellTiter-Blue
Procedure: as §7, §8

[8] = design: method as in PMID 23060265; settings: phase I trial with 32 patients; cited from earlier work
[9] = design: method as in PMID 23060265; settings: phase III, vs patients treated with dacarbazine; cited from earlier work
BRAF^V600E cells = tested on: BRAF^V600E cells; design: method as in PMID 20149136; settings: cited from earlier work
BRAF^wt cells = tested on: BRAF^wt cells; design: method as in PMID 20149136; settings: cited from earlier work
P-gp = settings: cited from earlier work
BCRP = settings: cited from earlier work

CCCS(=O)(=O)Nc1ccc(F)c([11C](=O)c2c[nH]c3ncc(-c4ccc(Cl)cc4)cc23)c1F [[^11C]vemurafenib]
binding when compared to unblocked conditions [1]: 51.2 ± 11.2%
binding when compared to unblocked conditions [2]: 65.1 ± 3.1%
cell bound + internalized fraction (Colo829 cells; 30 min, 37°C, unblocked): 74.3 ± 1.5%
cell bound + internalized fraction after pretreatment with unmodified vemurafenib (Colo829 cells; blocked): 17.0 ± 2.3%
cell bound + internalized fraction (MeWo cells; 30 min, 37°C, unblocked): 61.6 ± 8.2%
cell bound + internalized fraction after pretreatment with unmodified vemurafenib (MeWo cells; blocked): 20.6 ± 0.4%
intact tracer in plasma (stability) ([3]; 45 minutes after injection): > 95%
Parent (%) ([3]; 15 min p.i.): 97.8 ± 1.9%
Parent (%) ([3]; 45 min p.i.): 95.9 ± 4.4%
Tumor-to-blood ratio ([4]; Colo829 (BRAF^V600E)): 0.27 ± 0.06
Tumor-to-muscle ratio ([4]; Colo829 (BRAF^V600E)): 0.78 ± 0.18
Tumor-to-skin ratio ([4]; Colo829 (BRAF^V600E)): 0.90 ± 0.19
Tumor uptake ([4]; Colo829 tumors, 20–25 MBq): 0.87 ± 0.14 ID/g
Tumor-to-blood ratio ([5]; MeWo (BRAF^WT)): 0.29 ± 0.19
Tumor-to-muscle ratio ([5]; MeWo (BRAF^WT)): 0.72 ± 0.21
Tumor-to-skin ratio ([5]; MeWo (BRAF^WT)): 0.89 ± 0.28
Tumor uptake ([5]; MeWo tumors, 20–25 MBq): 0.49 ± 0.29 %ID/g
blood levels ([6]; after 60 minutes, xenograft bearing mice): 2–3 %ID/g
tumor-to-tissue ratios (muscle, blood, skin), all cases ([6]; both xenograft lines, 60 min p.i.): ≤ 1

CCCS(=O)(=O)Nc1ccc(F)c(C(=O)c2c[nH]c3ncc(-c4ccc(Cl)cc4)cc23)c1F [vemurafenib, Vemurafenib]
IC50 ([7]; Colo829 (BRAF^V600E), 120 h incubation, CellTiter-Blue): 130 nM
EC50 ([7]; printed in the picture beside the fitted curve, apparently Colo829, read-out: EC50, cell viability curve (Figure 2C)): 130 nM
IC50, cell viability (MeWo (BRAF^wt) cells): no IC50 was observed
unconfirmed overall response rate [8]: 81%
reduction in the risk of death [9]: 63%
effect on ERK1/2 phosphorylation (BRAF^V600E cells): abolished ERK1/2 phosphorylation
effect on ERK1/2 and MEK phosphorylation (BRAF^wt cells): rapid phosphorylation of ERK1/2 and MEK
substrate for ABC-cassette efflux transporter P-gp (P-gp): substrate
substrate for ABC-cassette efflux transporter BCRP (BCRP): substrate
